Entries after “also recorded” stand apart in the source; their conditions may differ.
Columns and labels:
[1] = tested on: human aortic SMCs (AoSMCs); assay: Immunocytochemistry and morphometry of elastic fibers in AoSMC cultures; format: cell-based; settings: 24-hour treatment, 0.5 to 100 nmol/L insulin, confluent AoSMCs, 2% FBS
From the text: Human aortic SMCs (AoSMCs) were propagated from small fragments of aortic media collected from autopsy. Guidelines for the protection of human subjects of the US Department of Health and Human Services and of the Declaration of Helsinki were followed in obtaining tissues for this investigation. Cells migrating from the cultured explants of aortic media were routinely passaged (up to three times) via trypsinization using 0.2% trypsin-0.02% EDTA, and were maintained in DMEM supplemented with 5% FBS and 1% antibiotic-antimycotic mix. The second and third passages of cells that migrated from the original explants of aortic media were routinely probed with antibodies recognizing the SMC-specific α-actin to monitor the preservation of the SMC phenotype. All cells were initially plated at 100,000 cells per dish for immediate confluency so they would begin extracellular matrix production. The cell cultures committed to particular experiments were then transferred to DMEM containing either 2% FBS or to serum-free medium before initiation of particular treatments.
At the end of treatments, confluent cultures of AoSMCs were fixed in cold 100% methanol at −20° C. for 30 minutes, and blocked with 1% normal goat serum for 1 hour. The cultures were then incubated for 1 hour with 10 μg/mL polyclonal antibodies to tropoelastin and/or with 10 μg/mL monoclonal antibody to SMC-specific α-actin. All cultures were then incubated for another hour with the respective fluorescein-conjugated secondary antibodies (fluorescein-conjugated goat anti-rabbit or anti-mouse). Nuclei were counterstained with red-fluorescent propidium iodide or blue-fluorescent DAPI. The cultures were then mounted in ethanol and examined using a microscope (Eclipse E1000; Nikon Instruments, Inc., Melville, N.Y.) attached to a cooled CCD camera (Retiga EX; QImaging Corp., Vancouver, BC, Canada) and a computer-generated morphometric analysis system (Image-Pro Plus software; Media Cybernetics, Inc., Bethesda, Md.). In each analyzed group, 50 low-power fields from three separate cultures were analyzed, and the areas occupied by immunodetectable elastic fibers were expressed as a percentage of the entire analyzed field.

retinoblastoma protein = assay: Western blotting of retinoblastoma protein phosphorylation; format: cell-based, human; settings: 30-minute treatment, 10 nmol/L insulin
From the text: At the end of all treatments, cells from quadruplicate cultures in each experimental group were lysed using NP40 cell lysis buffer (Invitrogen Corp.). Thirty micrograms of protein extracts from each sample was suspended in standard sample buffer, resolved on 4% to 12% gradient SDS-PAGE gels, transferred to nitrocellulose membranes, and subjected to Western blotting using antibodies.

FoxO1 = FoxO1 binding to elastin gene promoter DNA probe (FRE) on DYNABEADS; format: cell-based, human
Description: Cells were then scraped, and their nuclear extracts were pre-pared using an isolation kit (Active Motif, Inc.). […] The equal molar amounts of both single-stranded DNA oligonucleotides were annealed in Tris-EDTA buffer (10 mmol/L Tris-HCl, 1 mmol/L EDTA (pH 8.0)) to form the double-stranded DNA probe. […] All preparations were subsequently incubated for 2 hours in 200 μL binding buffer (50 mmol/L KCl, 10% glycerol, 20 mmol/L HEPES (pH 7.9), 1 mmol/L MgCl2, 1 mmol/L DTT, 0.1 μg poly(DI-DC) (polydeoxyinosinic-deoxycytidylic), and proteinase inhibitors). After binding, the beads were washed four times in the same binding buffer, without poly(DI-DC). The bound proteins were resolved using 8% SDS-PAGE and probed using Western blotting with the anti-FoxO1 monoclonal antibody.

S-Gal/EBP = assay: Association of tropoelastin with S-Gal/EBP chaperone (Western blot, co-immunoprecipitation, double immunostaining); format: cell-based, human; settings: 20 minutes, 10 nmol/L insulin
Description: Cultures fixed for 30 minutes in cold 100% methanol were then blocked with 1% glycine for 15 minutes, followed by 2% bovine serum albumin with 0.1% Triton X-100 for another hour at room temperature. They were finally exposed for 1 hour to the mixture of 5 μg/mL polyclonal anti-S-Gal/EBP and 5 μg/mL monoclonal anti-tropoelastin antibodies. All cultures were then incubated for another hour with the mixture of fluorescein-conjugated and rhodamine-conjugated secondary antibodies. Nuclei were counterstained with DAPI. At the end of all treatments, cells from quadruplicate cultures in each experimental group were lysed using NP40 cell lysis buffer (Invitrogen Corp.). Thirty micrograms of protein extracts from each sample was suspended in standard sample buffer, resolved on 4% to 12% gradient SDS-PAGE gels, transferred to nitrocellulose membranes, and subjected to Western blotting using antibodies. At the end of indicated treatments, the cultured cells were lysed as described, and 300 μL aliquots of cell extracts containing […] were incubated at 4° C. for 3 hours with the aliquots of protein G bound DYNABEADS® (Invitrogen Corp.) that were conjugated with either rabbit polyclonal anti-tropoelastin, goat polyclonal anti-Glut10, or rabbit polyclonal anti-S-Gal antibodies. The beads carrying the final immunoprecipitation products were then washed with PBS, resuspended in sample buffer, and boiled for 5 minutes. The released proteins were then resolved on SDS-PAGE gel and subjected to Western blotting using indicated antibodies.

## insulin
[1]
  production of immunodetected elastic fibers: dose-dependent increase; also recorded: induce new elastogenesis in a dose-dependent manner
Retinoblastoma protein
  site-specific phosphorylation of retinoblastoma protein on threonine 821: did not
FoxO1; AoSMCs treated 30 minutes with 10 nmol/L insulin, or preincubated with LY294002
  binding of FoxO1 from nuclear extracts to elastin promoter FRE DNA probe: could not sequester FoxO1; also recorded: could not bind FoxO1
FoxO1; LY294002 preincubation, consecutive insulin
  reversal by insulin of FoxO1 binding to the probe in LY294002-treated cells: could not reverse this interaction
S-Gal/EBP
  S-Gal/EBP coimmunoprecipitated using anti-tropoelastin antibody vs untreated: significantly more
  basic levels of intracellular S-Gal/EBP or tropoelastin (Western blot): did not demonstrate any increase; also recorded: do not demonstrate any increase
  co-localization of tropoelastin and S-Gal/EBP (double immunostaining): reveal co-localization

From US20150359854A1 (HUMAN MATRIX SCIENCES, LLC, priority 2012, published 2015)
